According to US10412960B2, “Microparticles and nanoparticles made up of hydrophobized polysaccharides and an alpha-cyclodextrine” (priority 2012, dated 2019):

How the values were obtained:
[1] = Encapsulation of active ingredients in the particles; assay type: physicochemical
Protocol: The protocol adopted for encapsulating the hydrophilic active ingredients is to dissolve the active ingredient in water at an initial concentration as indicated in Table 5 and then adding the amphiphilic polysaccharide and the α-cyclodextrin. The mixture is magnetically stirred for 3 days. After this mixing for 3 days, the concentration of the active ingredient that has not been encapsulated is determined in the supernatant of the preparation. The supernatant is separated either by simple sedimentation or by centrifugation of the microparticles, or after ultracentrifugation in the case of the nanoparticles.
The protocol adopted for encapsulating the hydrophobic active ingredients is to dissolve the active ingredient in an ethanol/water mixture at an initial concentration as shown in Table 26 and then add the amphiphilic polysaccharide and the α-cyclodextrin. The mixture is maintained under magnetic stirring for 3 days. After mixing for 3 days, the concentration of the active ingredient that has not been encapsulated is determined in the supernatant of the preparation. The supernatant is separated either by simple sedimentation or by centrifugation of the microparticles, or after ultracentrifugation in the case of the nanoparticles.

[2] = test system: Candida albicans; conditions: heparin coating of abiotic surfaces; cited from earlier work
[3] = test system: bacterial adhesion; conditions: heparin coating of abiotic surfaces; cited from earlier work
[4] = polysaccharide MC6, ethanol/water 40/60 % v/v, initial concentration 3.5 g/L
[5] = polysaccharide MC6, initial concentration 21.7 g/L, water
[6] = polysaccharide MC8, initial concentration 21.7 g/L, water
[7] = polysaccharide MC9, initial concentration 2.33 g/L, water
[8] = polysaccharide MC11, initial concentration 2.34 g/L, water
[9] = polysaccharide MC8, initial concentration 194 g/L, water
[10] = polysaccharide MC9, initial concentration 2.31 g/L, water

In the case of `CC(C(=O)O)c1cccc(C(=O)c2ccccc2)c1` (stereo not shown) [Ketoprofen], the Encapsulated concentration [1, 4] is reported as 1.09 g/L and the Encapsulation yield [1, 4] is reported as 31.12%.

Work on `Cn1c(=O)c2c(ncn2C)n(C)c1=O` [Caffeine] yielded a Concentration encapsulated [1, 5] of 3590 µg/mL, an Encapsulation yield [1, 5] of 16.55% and a Concentration encapsulated [1, 6] of 3150 µg/mL. For the same molecule, the Encapsulation yield [1, 6] was 17.53%, the Concentration encapsulated [1, 7] was 510 µg/mL and the Encapsulation yield [1, 7] was 22.23%.

In the case of `CC(=O)Nc1ccc(O)cc1` [Paracetamol], the Concentration encapsulated [1, 8] is reported as 780 µg/mL and the Encapsulation yield [1, 8] is reported as 33.33%.

In the case of Heparin, the “reduction of adhesion of Candida albicans” value [2] is given as “approximately 50%” and the “reduction of bacterial adhesion” value [3] is given as 90%.

Molecule `Cc1ncc(CO)c(CO)c1O.Cl` [Vitamin B6] has a Concentration encapsulated [1, 9] of 104650 µg/mL, an Encapsulation yield [1, 9] of 53.94% and a Concentration encapsulated [1, 10] of 1520 µg/mL. For the same molecule, the Encapsulation yield [1, 10] was 65.82%.
